For five compounds, IC50 results are on record in ChEMBL document CHEMBL1130866, “Conodiparines A-D, new bisindoles from Tabernaemontana. Reversal of vincristine-resistance with cultured cells” (Bioorg Med Chem Lett, 1998).

Values after ≈ are worked out from the molar mass of the structure shown.

Holding throughout (type): functional, cell-based
In experiment [1] the test system is KB. The experiment can be described thus: Compound was evaluated for its cytotoxicity against vincristine-resistant KB/VJ300 human oral epidermoid carcinoma cell lines.
Experiment [2] concerns KB. The experiment can be described thus: Compound was evaluated for its cytotoxicity against vincristine-sensitive KB/S human oral epidermoid carcinoma cell lines.
Experiment [3] has as its system KB. The experiment can be described thus: Compound was evaluated for its cytotoxicity against vincristine-resistant KB/VJ300 human oral epidermoid carcinoma cell lines, with added vincristine 0.25 ug/mL.

As to `CC[C@]1(O)C[C@H]2CN(CCc3c([nH]c4ccccc34)[C@@](C(=O)OC)(c3cc4c(cc3OC)N(C=O)[C@H]3[C@@](O)(C(=O)OC)[C@H](OC(C)=O)[C@]5(CC)C=CCN6CC[C@]43[C@@H]65)C2)C1` [VINCRISTINE], the values for the 50% inhibitory concentration (IC50) with KB [1] and in the experiment with KB [2] were 1.05 µg/mL (≈ 1.27 µM) and 0.014 µg/mL (≈ 0.017 µM), respectively.
For the compound `C/C=C1/CN(C)[C@H]2Cc3c([nH]c4ccccc34)[C@@H](c3c(OC)ccc4c5c([nH]c34)[C@]3(C(=O)OC)C[C@@H]4C[C@H](C(C)=O)C3N(CC5)C4)C[C@H]1[C@]2(CO)C(=O)OC`, the figures for the IC50 in the experiment with KB [1], in the experiment with KB [3] and in the experiment with KB [2] were 13.6 µg/mL (≈ 18.2 µM), 4.6 µg/mL (≈ 6.14 µM) and 18.6 µg/mL (≈ 24.8 µM), respectively.
In the same order, the values of `C/C=C1\CN(C)[C@H]2Cc3c([nH]c4ccccc34)[C@@H](c3cc4c5c([nH]c4cc3OC)[C@]3(C(=O)OC)C[C@@H]4C[C@H]([C@H](C)O)C3N(CC5)C4)C[C@H]1[C@]2(CO)C(=O)OC` are 13.5 µg/mL (≈ 18 µM), 1.45 µg/mL (≈ 1.93 µM) and 19.2 µg/mL (≈ 25.6 µM).
In the same order, the values of `C/C=C1/CN(C)[C@H]2Cc3c([nH]c4ccccc34)[C@@H](c3c(OC)ccc4c5c([nH]c34)[C@]3(C(=O)OC)C[C@@H]4C[C@H]([C@H](C)O)C3N(CC5)C4)C[C@H]1[C@]2(CO)C(=O)OC` are 15 µg/mL (≈ 20 µM), 2.45 µg/mL (≈ 3.26 µM) and 20.8 µg/mL (≈ 27.7 µM).
In the same order, the values of `C/C=C1/CN(C)[C@H]2Cc3c([nH]c4ccccc34)[C@@H](c3cc4c5c([nH]c4cc3OC)[C@]3(C(=O)OC)C[C@@H]4C[C@H](C(C)=O)[C@@H]3N(CC5)C4)C[C@H]1[C@]2(CO)C(=O)OC` are 17 µg/mL (≈ 22.7 µM), 5.6 µg/mL (≈ 7.48 µM) and 21.4 µg/mL (≈ 28.6 µM).

As usually defined, the IC50 is the concentration at which inhibition is half-maximal. Low readings indicate higher potency, high ones lower potency.
